Series [1] deals with suckling rats. As to the kind of experiment: Set I: plasma concentration of marker molecules BSA and BIgG (macromolecule absorption), Example 3. The class given is in vivo, Rattus norvegicus. The settings on record: 3 hours after marker feeding, day 17, in words (FIG. 6). From the text: The plasma level of marker molecules was quantified by using immunoassay rocket electrophoresis and SRI (single radial immunodiffusion) for plasma BSA and BIgG respectively.

Series [2] deals with suckling rats. As to the kind of experiment: Set I: body weight, GI and lymphoid organ weights, stomach pH after individual enzymes or mixture, Example 3. The settings on record: day 17.
Procedure: All experiments were performed in young suckling rats by feeding them from 14 days of age via stomach tube for 3 continuous days (ones a day). One day after last treatment rats were euthanized and plasma and organs proceeded to study structural and functional changes of gastrointestinal system.
The pups were kept with their dam until dissection day (day 17).
In this set suckling pups were divided into five groups; control (water) amylase 10 000 USP/rat/day, lipase 4 000 USP/rat/day, protease 15 000 USP/rat/day, and mixture of these enzyme with corresponding activities per rat and day. This study was evaluating the effects of different pancreatic-like enzymes on the gut maturation and functioning and had 3 individual litters; n=12, n=10 and n=13, totally n=7 pups per each group. Each of the enzymes (Amylase, Protease and Lipase) (Sigma Aldrich) was available in the powder form and was resolved in distilled water prior to stomach feeding during days 14, 15 and 16. The volume of administered enzymes and distilled water (for control groups) was 0.01 ml/g BW. Each time, prior to the feeding procedure, the pups were weighed. […] Then 3 hours later, the pups were sedated with CO2 and anaesthetized by subcutaneous injection with a mixture of ketamine (Ketalar®, Pfizer, New York, USA, NaCl and azaperone (Stresnil®, Janssen Pharmaceutica, Beerse, Belgium), 0.01 ml/g BW. After opening the abdomen of the rats, 1 ml of blood was collected from heart by using syringes containing protease inhibitor and EDTA (50 μl) as anticoagulant and was transferred into ice-chilled tubes. After this, the pancreas was immediately dissected and rinsed with cold 0.9% NaCl, weighted and stored at −70 C. The SI was removed and its length was measured then divided into two halves, proximal and distal. Each segment was flushed out with cold 0.9% NaCl to clean the lumen and was then weighed separately. […] The stomach was removed and its content was collected into the tube (for measuring its pH) and frozen. Then cecum was dissected out, opened, rinse and weighed as well as liver and lymphoid organs spleen and thymus were dissected and weighted.
The contents of the stomach were de-frozen and then resolved with 1 ml of cold 0.9% NaCl. After resolving, they were centrifuged and the pH was measured in the supernatant using pH-meter.
All data are presented as mean±standard deviation (SD). Statistical comparisons between each group and control group were performed using the t-test. Results were considered as significant when P<0.05.
Series [3] deals with suckling rats. As to the kind of experiment: Set I: brush-border disaccharidase activity in proximal SI, Example 3. The class given is in vivo, Rattus norvegicus. To be noted: proximal part of SI, in words (FIG. 5). The procedure:
The proximal samples of the SI were de-frozen and weighted and then homogenized with 9 parts of 0.9% NaCl (9 w/v). The homogenates (50 μl diluted samples) were incubated with the appropriate disaccharide (50 μl of 0.056M sucrose, maltose and lactose) for 1 hour at 37° C. After this, the liberated glucose was determined by adding glucose oxidase reagent (Sigma Chemicals), and incubated for 30 minutes. Then samples were transferred into the 96-well plate in triplication and the absorbance was measured at 450 nm. To measure the protein contents of the homogenates, Lowry method, was used, where BSA (Bovine Serum Albumin) was used as a standard. The results are presented as specific activity units per mg of protein (u/mg).

For series [4], the system named is suckling rats. The series can be described thus: Set I: intestinal morphology of distal SI, Example 3. The class given is in vivo, Rattus norvegicus. To be noted: distal part of SI, day 17. The procedure: All samples collected for histology were fixed with Bouin's solution for 24 hours and then stored in 70% ethanol, dehydrated, embedded into the paraffin and then cut into sections with 5 μm thickness. The tissue sections were transferred onto the slides, rehydrated and stained with H&E according to the standard technique. After mounting under cover slips samples were examined using light microscopy to estimate ratio between total length of the villus and length of the adult type enterocytes using ImageJ program.

For a further series, the system named is young rats. As to the kind of experiment: Growth of young rats treated with microbial amylase or lipase, Example 7. It is filed as in vivo. To be noted: 10 000 USP for amylase/rat, days 14-16, in words (FIG. 11). The procedure: This study was done to consider the effect of separated enzymes on body growth. The experiment is completing study done earlier to investigate effects of protease on body growth and was performed in similar mode (see experiment 3-5 above).
Suckling pups were divided into 3 groups depending on the treatment; amylase, lipase and water (n=7 per group). The enzymes are available in the market in form of powders and were resolved in distilled water prior to stomach feeding during 14-16 d of age, ones a day. The administered dose for each single enzyme feeding was 4 000 USP for lipase/rat and 10 000 USP for amylase/rat. The control group received vehicle.

We go through 1 substance from patent US9205137B2, “Maturation of gastrointestinal tract” (ANARA AB, priority 2010, dated 2015).

Take α-Amylase from Aspergillus oryzae: in the series on suckling rats [1], the “uptake of marker molecule BIgG to plasma” value is given as “remained in a higher level” and the “uptake of marker molecule BSA to plasma” value is on record as “remained in a higher level”. In addition, in the series on suckling rats [2] (3 days treatment), the Body weight was 37.2 ± 2.3 gr, the Cecum was 2.5 ± 0.3 mg/g BW, the “Distal SI” value worked out at 15.2 ± 2.3 mg/g BW and the Liver is listed as 33.7 ± 1.3 mg/g BW. Besides, in the series with suckling rats [2] (3 days treatment), the Pancreas stood at 3.5 ± 0.4 mg/g BW, the “Proximal SI” value came out at 16.6 ± 1.9 mg/g BW, the SI length is given as 1.5 ± 0.0 cm/g BW and the Spleen is listed as 3.6 ± 0.7 mg/g BW. For the same substance, in the series on suckling rats [2] (3 days treatment), the Stomach is 6.8 ± 0.4 mg/g BW and the Thymus was 5.1 ± 0.2 mg/g BW. Moreover, the pH with suckling rats [2] (stomach contents) is given as 4.0 ± 0.2. Also, in the series on suckling rats [3], the lactase activity entry is “higher”, the maltase activity result was “stayed in a lower level” and the sucrase activity entry is listed as “stayed in a lower level”. The “foetal-type epithelium with vacuolated enterocytes along the villi” value in the series with suckling rats [4] amounted to 77%. For the same substance, the “growth of young rats in comparison to lipase and control group” value with young rats was “clear effect of amylase to stimulate growth”.
